Data on 22 compounds can be found in PubChem BioAssay AID248 (DTP/NCI, 2004).

Values joined by “and” are separate entries in the source; they are usually repeats but may differ in a detail not shown here. Equal entries are not always repeated. Inconclusive results and toxic doses are left out.

The subject of this assay is L1210 leukemia ip in BDF1 mice, survival T/C. Description: NCI In Vivo Anticancer Drug Screen. Data for tumor model L1210 Leukemia (intraperitoneal) in B6D2F1 (BDF1) mice. The following applies: endpoint: mean survival time, higher = longer survival. Summed up:
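In this screen, tumor-bearing mice given compound are compared to those given vehicle, and their survival values are reported as a treated-to-control quotient.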

The mark [1] stands for this setting: dose: 100.0 mg/kg/injection, schedule: Q04DX003 (ip), vehicle: saline with Tween-80.
The mark [2] stands for this setting: dose: 200.0 mg/kg/injection, schedule: Q04DX003 (ip), vehicle: saline with Tween-80.
[3] abbreviates: dose: 100.0 mg/kg/injection, schedule: Q04DX003 (ip), vehicle: Klucel (hydroxypropylcellulose) (HPC).
[4] abbreviates: dose: 200.0 mg/kg/injection, schedule: Q04DX003 (ip), vehicle: Klucel (hydroxypropylcellulose) (HPC).
The mark [5] stands for this setting: dose: 400.0 mg/kg/injection, schedule: Q04DX003 (ip), vehicle: Klucel (hydroxypropylcellulose) (HPC).
Where [6] appears, read: dose: 100.0 mg/kg/injection, schedule: Q01DX009 (ip), vehicle: Klucel (hydroxypropylcellulose) (HPC).
Where [7] appears, read: dose: 200.0 mg/kg/injection, schedule: Q01DX009 (ip), vehicle: Klucel (hydroxypropylcellulose) (HPC).
The mark [8] stands for this setting: dose: 400.0 mg/kg/injection, schedule: Q01DX009 (ip), vehicle: Klucel (hydroxypropylcellulose) (HPC).
Where [9] appears, read: dose: 75.0 mg/kg/injection, schedule: Q01DX001 (ip), vehicle: saline.
The mark [10] stands for this setting: dose: 150.0 mg/kg/injection, schedule: Q01DX001 (ip), vehicle: saline.
The mark [11] stands for this setting: dose: 100.0 mg/kg/injection, schedule: Q01DX009 (ip), vehicle: saline with Tween-80.
Where [12] appears, read: dose: 200.0 mg/kg/injection, schedule: Q01DX009 (ip), vehicle: saline with Tween-80.
Where [13] appears, read: dose: 400.0 mg/kg/injection, schedule: Q01DX009 (ip), vehicle: saline with Tween-80.
Where [14] appears, read: dose: 400.0 mg/kg/injection, schedule: Q04DX003 (ip), vehicle: saline with Tween-80.

With `CCCCCCCC(=O)Nc1cc2c3c(c1)CCCN3CCC2`, the T/C reads like this: (dose: 50.0 mg/kg/injection, schedule: Q04DX003 (ip), vehicle: saline with Tween-80) 103 % of control; under setting [1], 97 % of control; under setting [2], 103 % of control.

Turning to `COc1ccc(N(N=Nc2ccccc2)C(C)=O)cc1`, the T/C reads like this: (dose: 40.0 mg/kg/injection, schedule: Q01DX009 (ip), vehicle: Klucel (hydroxypropylcellulose) (HPC)) 96 % of control; (dose: 75.0 mg/kg/injection, schedule: Q01DX001 (ip), vehicle: Klucel (hydroxypropylcellulose) (HPC)) 96 % of control; (dose: 75.0 mg/kg/injection, schedule: Q01DX009 (ip), vehicle: Klucel (hydroxypropylcellulose) (HPC)) 101 % of control; (dose: 150.0 mg/kg/injection, schedule: Q01DX001 (ip), vehicle: Klucel (hydroxypropylcellulose) (HPC)) 90 % of control; (dose: 150.0 mg/kg/injection, schedule: Q01DX009 (ip), vehicle: Klucel (hydroxypropylcellulose) (HPC)) 112 % of control; (dose: 300.0 mg/kg/injection, schedule: Q01DX001 (ip), vehicle: Klucel (hydroxypropylcellulose) (HPC)) 86 % of control.

Regarding `O=C(O)C[S+]1CCSCC1`, the T/C runs as follows: (dose: 100.0 mg/kg/injection, schedule: Q04DX002 (ip), vehicle: saline) 105 % of control; (dose: 200.0 mg/kg/injection, schedule: Q04DX002 (ip), vehicle: saline) 105 % of control; (dose: 400.0 mg/kg/injection, schedule: Q04DX002 (ip), vehicle: saline) 105 % of control.

Regarding `C1CCCC(=[N+]2CCCC2)CCC1`, the T/C (dose: 100.0 mg/kg/injection, schedule: Q01DX009 (ip), vehicle: saline) was 100 % of control.

On to `O=S(=O)(NC/C=C/c1ccccc1)c1ccccc1`, for which the T/C is, setting by setting: (dose: 100.0 mg/kg/injection, schedule: Q01DX001 (ip), vehicle: Klucel (hydroxypropylcellulose) (HPC)) 96 % of control; (dose: 200.0 mg/kg/injection, schedule: Q01DX001 (ip), vehicle: Klucel (hydroxypropylcellulose) (HPC)) 103 % of control; (dose: 400.0 mg/kg/injection, schedule: Q01DX001 (ip), vehicle: Klucel (hydroxypropylcellulose) (HPC)) 102 % of control.

Take `c1ccc(Cc2cncc(Cc3ccccc3)n2)cc1`: the T/C reads like this: under setting [3], 101 % of control; under setting [4], 97 % of control; under setting [5], 98 % of control.

`O=C(Oc1cccc([N+](=O)[O-])c1)c1ccc([N+](=O)[O-])cc1O`: the T/C was 95 % of control (dose: 100.0 mg/kg/injection, schedule: Q01DX001 (ip), vehicle: saline); 95 % of control (dose: 200.0 mg/kg/injection, schedule: Q01DX001 (ip), vehicle: saline); 97 % of control (dose: 400.0 mg/kg/injection, schedule: Q01DX001 (ip), vehicle: saline).

Consider `O=C(Nc1ccc(F)cc1)C(c1ccccc1)c1ccccc1`, for which the T/C is, setting by setting: under setting [6], 108 % of control; under setting [3], 90 % of control; under setting [7], 101 % of control; under setting [4], 93 % of control; under setting [8], 95 % of control; under setting [5], 88 % of control.

As to `CNC(=O)Nc1ccc(Cl)cc1C`, the T/C is, setting by setting: under setting [6], 98 % of control; under setting [3], 96 % of control; under setting [7], 102 % of control; under setting [4], 96 % of control; under setting [5], 106 % of control.

`FC(F)(F)c1ccc(C=C2c3ccccc3-c3ccccc32)cc1`: the T/C is 92 % of control (dose: 12.5 mg/kg/injection, schedule: Q04DX002 (ip), vehicle: Klucel (hydroxypropylcellulose) (HPC)); 92 % of control (dose: 25.0 mg/kg/injection, schedule: Q04DX002 (ip), vehicle: Klucel (hydroxypropylcellulose) (HPC)); 92 % of control (dose: 50.0 mg/kg/injection, schedule: Q04DX002 (ip), vehicle: Klucel (hydroxypropylcellulose) (HPC)).

Regarding `CSc1ccc(C(=O)c2ccc(SC)cc2)cc1`, the T/C is 98 % of control under setting [6], 98 % of control under setting [7] and 95 % of control under setting [8].

Regarding `N#Cc1cc[n+](Cc2ccccc2)cc1`, the T/C is 101 % of control under setting [9] and 102 % of control under setting [10].

`S=C(NCc1ccc(Cl)c(Cl)c1)NCc1ccc(Cl)c(Cl)c1`: the T/C is 103 % of control (dose: 25.0 mg/kg/injection, schedule: Q01DX009 (ip), vehicle: Klucel (hydroxypropylcellulose) (HPC)) and 101 % of control (dose: 50.0 mg/kg/injection, schedule: Q01DX009 (ip), vehicle: Klucel (hydroxypropylcellulose) (HPC)).

As to `Cc1cc(OC(C)C(=O)O)c(Cl)cc1Cl` (stereo not given), the T/C by setting is: (dose: 50.0 mg/kg/injection, schedule: Q01DX001 (ip), vehicle: carboxymethylcellulose (CMC)) 103 % of control; (dose: 100.0 mg/kg/injection, schedule: Q01DX001 (ip), vehicle: carboxymethylcellulose (CMC)) 103 % of control.

Regarding `CCOC(=O)Cc1cnc(C)[nH]c1=O`, the T/C is, setting by setting: under setting [6], 95 % of control; under setting [7], 101 % of control; under setting [8], 96 % of control.

With `O=C1C2CC(CN3CCCCC23)C2CCCCN12` (stereo not given), the T/C was 94 % of control under setting [9]; 103 % of control under setting [10]; 101 % of control (dose: 300.0 mg/kg/injection, schedule: Q01DX001 (ip), vehicle: saline).

With `Cc1c2c([nH]c(=O)c1C)C=CC(Br)C2Br` (stereo not given), the T/C runs as follows: (dose: 100.0 mg/kg/injection, schedule: Q01DX001 (ip), vehicle: other) 93 % of control; (dose: 200.0 mg/kg/injection, schedule: Q01DX001 (ip), vehicle: other) 101 % of control; (dose: 400.0 mg/kg/injection, schedule: Q01DX001 (ip), vehicle: other) 98 % of control.

Turning to `CCOC(=O)c1ccc(NC(=O)N2CCCCC2C)cc1` (stereo not given), the T/C runs as follows: (dose: 100.0 mg/kg/injection, schedule: Q01DX001 (ip), vehicle: saline with Tween-80) 93 % of control; under setting [11], 104 % of control; (dose: 100.0 mg/kg/injection, schedule: Q04DX002 (ip), vehicle: saline with Tween-80) 97 % of control and 99 % of control; under setting [1], 88 % of control; (dose: 200.0 mg/kg/injection, schedule: Q01DX001 (ip), vehicle: saline with Tween-80) 89 % of control; under setting [12], 104 % of control. In addition, the T/C is 92 % of control and 100 % of control (dose: 200.0 mg/kg/injection, schedule: Q04DX002 (ip), vehicle: saline with Tween-80); 96 % of control under setting [2]; 91 % of control (dose: 400.0 mg/kg/injection, schedule: Q01DX001 (ip), vehicle: saline with Tween-80); 97 % of control under setting [13]; 94 % of control and 99 % of control (dose: 400.0 mg/kg/injection, schedule: Q04DX002 (ip), vehicle: saline with Tween-80); 96 % of control under setting [14].

As to `CN(Cc1cnc2nc(N[Si](C)(C)C)nc(N[Si](C)(C)C)c2n1)c1ccc(C(=O)NC(CCC(=O)O[Si](C)(C)C)C(=O)O[Si](C)(C)C)cc1` (stereo not given), the T/C (dose: 0.62 mg/kg/injection, schedule: Q01DX009 (ip), vehicle: saline) was 112 % of control; the T/C (dose: 1.25 mg/kg/injection, schedule: Q01DX009 (ip), vehicle: saline with Tween-80) was 164 % of control; the T/C (dose: 1.25 mg/kg/injection, schedule: Q01DX009 (ip), vehicle: saline) was 119 % of control; the T/C (dose: 2.5 mg/kg/injection, schedule: Q01DX009 (ip), vehicle: saline with Tween-80) was 187 % of control; the T/C (dose: 5.0 mg/kg/injection, schedule: Q01DX009 (ip), vehicle: saline with Tween-80) is 152 % of control; the T/C (dose: 5.0 mg/kg/injection, schedule: Q01DX009 (ip), vehicle: saline) was 183 % of control. The T/C (dose: 10.0 mg/kg/injection, schedule: Q01DX009 (ip), vehicle: saline) was 204 % of control.

For `O=C(CNC(=O)c1ccccc1)N/N=C/c1c(O)ccc2ccccc12`, the T/C by setting is: under setting [11], 95 % of control; under setting [12], 95 % of control; under setting [13], 97 % of control.

As for `S=c1sc2ccccc2n1CN(c1ccccc1)c1ccc2ccccc2c1`, the T/C under setting [11] was 88 % of control; the T/C under setting [1] is 88 % of control; the T/C under setting [12] is 90 % of control; the T/C under setting [2] was 88 % of control; the T/C under setting [13] was 94 % of control; the T/C under setting [14] was 93 % of control.

`N/N=C(\NN)c1ccccc1`: the T/C is, setting by setting: under setting [11], 92 % of control; under setting [12], 91 % of control; under setting [13], 86 % of control.
